EC50, IC50 and outcome data for 73 compounds are collected here from PubChem BioAssay AID179 (DTP/NCI, 2004).

What is called EC50 is the concentration giving half of the maximal effect. A word on the IC50: it is the concentration at which inhibition is half-maximal. A high value points to weaker potency in that assay.

Several values for one entry are separate records, joined by “and”; a condition that tells them apart may be missing. Equal values may be shown once. Activity calls are given as the source filed them.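 Rule for the calls: active = compounds giving half or more protection of infected cells from virus-caused growth loss, again on retest; inactive = the rest.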

For the experiment, the system named is CEM cells HIV-1 protection, formazan growth assay. The experiment can be described thus: NCI AIDS Antiviral Assay. The settings on record: for IC50: measured here: growth of uninfected CEM cells. A digest of the protocol: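 CEM (human) cells, HIV-1 infected vs uninfected, 5-point dosing, formazan growth read-out. Retest threshold 50% protection.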

For `O=c1nc2ccc3sc4ccccc4c(=O)c3n2c(=O)[nH]1`, the EC50 is above 200 µM and the IC50 was 110 µM.
Consider `COc1cc2c(cc1OC)C(CN)C2` (configuration not stated), for which the EC50 is above 1070 µM; the IC50 is 30.9 µM and 20 µM.
For `O=C1Nc2ccccc2C1(O)Cc1ccccn1` (configuration not stated), the EC50 was above 1050 µM and the IC50 is above 1050 µM.
On to `CCOC(=O)C(CC[C@H]1c2[nH]c3ccccc3c2C[C@@H](C#N)N1C(=O)C(F)(F)F)C(=O)OCC`, for which the EC50 is above 20.9 µM and the IC50 was above 20.9 µM.
In the case of `C(=N\Nc1ccc2ccccc2n1)/c1ccccn1`, the EC50 was above 20 µM and the IC50 came to 1.1 µM.
Turning to `COc1cc(C2C(Cl)C(=O)N2NC(=O)Cc2ccccc2)ccc1O` (configuration not stated), the EC50 was above 72.4 µM and the IC50 is above 72.4 µM.
On to `CCOP(=O)(OCC)C(Cc1ccccc1)N=C(c1ccccc1)c1ccccc1` (configuration not stated), for which the EC50 is above 200 µM and the IC50 worked out at 10.7 µM.
Take `O=C1OC(c2ccccc2)(c2ccccc2)c2ccc3ccc(F)cc3c21`: the result was inactive.
As for `CCCCNC(=S)Nn1c(-c2ccccc2)nc2ccccc2c1=O`, the EC50 was above 20.4 µM and the IC50 was above 20.4 µM.
Consider `COC/N=C(\NC#N)NCOC`, for which the EC50 was above 525 µM and the IC50 is above 525 µM.
As for `Cc1c(O)c(OC2OC(CO)C(O)C(O)C2O)cc2c1C=C[C@@H]1[C@@]2(C)C(=O)C[C@]2(C)[C@@H]([C@@](C)(O)C(O)/C=C/C(C)(C)O)[C@H](O)C[C@@]12C` (some centres not stated), the EC50 is above 200 µM and the IC50 was above 200 µM.
Regarding `Nc1nc(SCc2ccccn2)c2ncn(C3CCCC3)c2n1`, the EC50 is above 200 µM and the IC50 worked out at 110 µM.
Taken in the same sequence, the figures for `CO[C@H](C(=O)O[C@H]1C(=O)N2CCC3CCC1C32C)c1ccccc1` (some centres not stated) were above 759 µM and 501 µM.
`COCCCNC(=O)C1=C(C)NC(C)=C(C(=O)NCCCOC)C1`: the EC50 was above 200 µM and the IC50 came out at 53.7 µM.
As to `CCOC(=O)C1C2CCC(C2=C(c2ccccc2)c2ccccc2)C1C(=O)O` (configuration not stated), the EC50 is above 234 µM and the IC50 is 102 µM.
Taken in the same sequence, the figures for `COC(=O)C(c1ccc(OC)cc1)N1C(=O)[C@@H](NC(=O)c2ccccc2)[C@H]1[C@@H](C)O` (some centres not stated) were above 200 µM and above 200 µM.
Regarding `CCCCCCCCCCCCOP(=O)(O)OCC(N)C(=O)O` (configuration not stated), the EC50 is above 200 µM and the IC50 came to 10.2 µM.
`CC1(C)/C(=N\NC(N)=O)C2CCC1C2` (configuration not stated): the EC50 was above 200 µM and the IC50 is above 200 µM.
Regarding `NS(=O)(=O)c1ccc(CNC(=O)c2ccccc2SC(=O)OCCCCCl)cc1`, the EC50 amounted to 4.68 µM and the IC50 was 129 µM.
Taken in the same sequence, the figures for `Cn1c(=O)c2nc3n(c2n(C)c1=O)C(=O)C(C#N)N=N3` (configuration not stated) were above 200 µM and above 200 µM.
As for `CCCCn1c(-c2ccccc2)cs/c1=N\N=C1C=C(C(C)(C)C)C(=O)C(C(C)(C)C)=C1`, the EC50 is above 15.8 µM and the concentration for half-maximal inhibition (IC50) was above 15.8 µM.
As to `O=C1c2ccccc2C(=O)c2c(O)c(NCCNCCO)cc(O)c21`, the outcome was inactive.
Consider `CCOC(=O)/C=C/CCO[Si](C)(C)C(C)(C)C`, for which the EC50 was above 200 µM and the IC50 is above 200 µM.
As to `c1cnc2c(c1)-n1cccc1C1(CCOCC1)NN2`, the EC50 was above 200 µM and the concentration for half-maximal inhibition (IC50) is above 200 µM.
Turning to `CCC(OCc1ccccc1)/C(C)=C/CC(C)C=C(Br)Br` (configuration not stated), the EC50 is above 933 µM and the IC50 was determined as 891 µM.
Consider `CC(=O)c1cccc(NCn2nnc3ccccc32)c1`, for which the EC50 is above 200 µM and the IC50 amounted to 95.5 µM.
For `COc1ccc(Cl)c2c1[nH]c1nc3nc4cc(Cl)ccc4n3nc12`, the EC50 is above 100 µM and the IC50 is above 100 µM.
Regarding `CCOC(=O)Cn1c(=O)[nH]c(=O)c2[nH]cnc21`, the EC50 was above 1050 µM and the IC50 is above 1050 µM.
Turning to `Nc1nccc2c([N+](=O)[O-])cccc12`, the result was inactive.
As to `c1ccc(CN2CCCCC(Sc3ccccc3)CC2)cc1` (configuration not stated), the EC50 was above 43.7 µM and the IC50 is 34.7 µM.
For `CN(C)CCN1C(=O)C2(C)C3CCC(O3)C2(C)C1=O` (configuration not stated), the EC50 was 141 µM and the IC50 is 170 µM.
Taken in the same sequence, the figures for `CCOC(=O)c1ccc(N=Nc2ccc(N(CCC#N)CCC#N)cc2C)cc1` were above 9.77 µM and above 9.77 µM.
`Cc1cc(NS(=O)(=O)c2ccc(Nc3c4ccccc4nc4c(C(=O)NCC#N)cccc34)cc2)no1`: the EC50 was above 200 µM and the IC50 was 10.7 µM.
On to `O=C(Nc1ccccc1)N1C(c2ccccc2)=N[C@@H](c2ccccc2)[C@@H]1c1ccccc1`, for which the result was inactive.
For `CC1CC(C#N)=C2NCCN2C1=O` (configuration not stated), the EC50 is above 200 µM and the IC50 was above 200 µM.
`COc1cc(C(c2cc(OC)c(OC)c(OC)c2)N2C(=O)CCC2C(=O)O)cc(OC)c1OC` (configuration not stated): the EC50 was above 200 µM and the IC50 was above 200 µM.
For the compound `C/C(=N\N=C(N)N)C(CN(C)C)C(c1ccccc1)c1c(O)c2ccccc2oc1=O` (configuration not stated), the EC50 was above 40.7 µM and the half-maximal inhibitory concentration (IC50) was 17.4 µM.
Taken in the same sequence, the figures for `CCCCNC(=S)/N=C/c1c(O)c2ccccc2oc1=O` were above 200 µM and 182 µM.
In the same order, the values of `CC[N+](CC)=c1cc2oc3cc(N(C)C)ccc3nc-2cc1C` are above 200 µM and 16.2 µM.
With `Cc1cccc(C)c1NC(=S)/N=C/C1=C(O)c2ccccc2C1=O`, the EC50 is above 200 µM and the IC50 is 15.8 µM.
`O=C(NC1CCC(=O)N1C(=O)OCc1ccccc1)OCc1ccccc1` (configuration not stated): the EC50 was above 200 µM and the IC50 was above 200 µM.
For the compound `CC/C(=C\c1ccc(OC)cc1)c1ccc(OC)cc1`, the EC50 was above 200 µM and the IC50 was above 200 µM.
Take `Cc1ccc(S(=O)(=O)N(CCN2C(=O)c3ccccc3C2=O)c2cc3c4c(c2)Oc2cc(N(CCN5C(=O)c6ccccc6C5=O)S(=O)(=O)c5ccc(C)cc5)cc5c2C4(C)c2c(cc(N(CCN4C(=O)c6ccccc6C4=O)S(=O)(=O)c4ccc(C)cc4)cc2O5)O3)cc1`: the EC50 is above 100 µM and the IC50 is 64.6 µM.
With `Clc1ccc2nc(CCSCCc3nc4ccc(Cl)cc4[nH]3)[nH]c2c1`, the outcome was inactive.
Regarding `CCNc1cc2oc(=O)cc(C)c2cc1C`, the EC50 was above 33.1 µM and the IC50 was above 33.1 µM.
Regarding `[N-]=[N+]=CC(=O)C1CCCN1C(=O)c1ccccc1` (configuration not stated), the EC50 was above 200 µM and the IC50 was above 200 µM.
On to `Nc1ccc2c(c1)C(=P(c1ccccc1)(c1ccccc1)c1ccccc1)c1ccccc1-2`, for which the EC50 was above 200 µM and the IC50 was 10.7 µM.
In the case of `Nc1ccc(N=Nc2ccc(N=Nc3ccc(N=Nc4cc(S(=O)(=O)O)c5ccccc5c4O)c4ccc(S(=O)(=O)O)cc34)c3ccc(S(=O)(=O)O)cc23)cc1`, the outcome was active.
As for `CCOC(=O)/C(N=Nc1ccc(-n2c(C)nc3ccccc3c2=O)cc1)=C(/C)O`, the EC50 is above 200 µM and the IC50 came to 151 µM.
`S=c1nc(Cc2ccc(Cl)cc2)[nH][nH]1`: the EC50 was above 200 µM and the IC50 came to 56.2 µM.
Taken in the same sequence, the figures for `CN(C)c1ccc(/C=C/C(=O)[O-])cc1.CN(C)c1ccc(/C=C/C(=O)[O-])cc1.[Cu+2]` were above 8.51 µM and above 8.51 µM.
For `COc1cccc2c1C(CO)N1C(C#N)C3CC(C(=O)O)C(C1C2)N3C` (configuration not stated), the EC50 is above 0.355 µM and the IC50 came out at 0.0372 µM.
On to `Cn1c(=O)oc(=O)c2ccccc21`, for which the result was inactive.
Turning to `CC1=CCC2(C#N)CCC1C2=O` (configuration not stated), the EC50 was above 251 µM and the IC50 is above 251 µM.
On to `O=C(CCn1ccnc1[N+](=O)[O-])NCCCn1ccnc1[N+](=O)[O-]`, for which the EC50 is above 200 µM and the IC50 was above 200 µM.
With `CCCCCC=C(c1cc(Br)cc(C(=O)O)c1OC)c1cc(Br)cc(C(=O)O)c1OC`, the EC50 was above 170 µM and the IC50 came out at 166 µM.
For `N=C(N)n1ncc(Cl)c(Cl)c1=O`, the EC50 is above 91.2 µM and the IC50 came to 0.407 µM.
`Nc1ccn(C2CCC(CO)O2)c(=S)n1` (configuration not stated): the EC50 was above 200 µM and the IC50 is above 200 µM.
As for `COc1ccc(C(=O)O/N=C2/CCCCC2CN(C)C)cc1` (configuration not stated), the result was inactive.
In the case of `CC1(c2cccc3ccccc23)OC(=O)c2cccc(F)c21` (configuration not stated), the EC50 was above 36.3 µM and the IC50 is 5.89 µM.
In the case of `O=c1oc2c3ccc4ccccc4c3n(Cc3nc4ccccc4[nH]3)c2c2ccccc12`, the EC50 is above 8.32 µM and the IC50 was determined as 4.68 µM.
In the same order, the values of `NCCN1C(=O)c2ccccc2C1c1ccc(Cl)cc1` (configuration not stated) are above 200 µM and above 200 µM.
Taken in the same sequence, the figures for `Nc1c(-c2nc3ccccc3s2)c2ccc([N+](=O)[O-])cc2c(=O)n1-c1cccc(C(=O)O)c1` were 7.76 µM and 37.2 µM.
Regarding `Cc1nc2nnc(C)n2c2c1C(=O)Nc1ccccc1N2`, the EC50 was above 200 µM and the IC50 is above 200 µM.
For the compound `CSCCC(N)C(=O)NCCS(=O)(=O)O` (configuration not stated), the EC50 was above 200 µM and the IC50 was above 200 µM.
`CCC[N+]1=C/c2ccccc2OC(=O)/C=C\1[O-]`: the EC50 was above 200 µM and the IC50 is above 200 µM.
Regarding `Cc1ccc2c(c1C)CC1(Cc3ccc(C)c(C)c3C1=O)C2=O` (configuration not stated), the EC50 was above 100 µM and the IC50 was above 100 µM.
With `CCCC(=O)Nc1ccc(C2=NNC(=O)C3CC23)cc1` (configuration not stated), the EC50 is above 200 µM and the IC50 is above 200 µM.
As for `O=C1C(Cl)C(c2ccccc2)N1n1cnc2ccccc2c1=O` (configuration not stated), the EC50 is above 79.4 µM and the 50% inhibitory concentration (IC50) is above 79.4 µM.
For the compound `COc1cc2c(cc1OC)C13CCN4CC5CCOC6CC(=O)N2C1C6C5CC43` (configuration not stated), the EC50 was above 200 µM and the IC50 was above 200 µM.
Turning to `CCOC(=O)c1c(N2CCCC2)[nH]c(=O)c(C(c2ccco2)c2c(O)c(C(=O)OCC)c(N3CCCC3)[nH]c2=O)c1O`, the EC50 is above 200 µM and the IC50 is 117 µM.
Taken in the same sequence, the figures for `Cc1c(-c2cnccn2)ssc1=S` were above 200 µM and 102 µM.
On to `CC1(C)OC2OC(C(=O)c3ccccc3)C3OC(C)(C)OC3C2O1` (configuration not stated), for which the result was inactive.
